Laboratory results as given in US11414416B1, “Compounds and uses thereof” (Foghorn Therapeutics Inc., priority 2019, dated 2022).
Like-named read-outs stand apart in the source and are kept apart here.

Molecular target: Nanoluciferase-BRD9 fusion protein (Homo sapiens (Human), UniProt Q9H8M2)
Assay: SYO1 BRD9 NanoLuc degradation assay
Format: cell-based
Conditions: SYO-1 cells expressing 3×FLAG-NLuc-BRD9, 6 hours; for DC50: read-out: SYO1 BRD9-NanoLuc degradation IC50
Protocol: Procedure: A stable SYO-1 cell line expressing 3×FLAG-NLuc-BRD9 was generated. On day 0 cells were seeded in 30 μL media into each well of 384-well cell culture plates. The seeding density was 8000 cells/well. […] Subsequently plates were incubated for 6 hours in a standard tissue culture incubator and equilibrated at room temperature for 15 minutes. Nanoluciferase activity was measured by adding 15 μL of freshly prepared Nano-Glo Luciferase Assay Reagent (Promega N1130), shaking the plates for 10 minutes and reading the bioluminescence using an EnVision reader.
DMSO treated cells are employed as High Control (HC) and 1 μM of a known BRD9 degrader standard treated cells are employed as Low Control (LC).

Nanoluciferase-BRD9 fusion protein, sequence (Q9H8M2 whole entry, the tested form may be a part): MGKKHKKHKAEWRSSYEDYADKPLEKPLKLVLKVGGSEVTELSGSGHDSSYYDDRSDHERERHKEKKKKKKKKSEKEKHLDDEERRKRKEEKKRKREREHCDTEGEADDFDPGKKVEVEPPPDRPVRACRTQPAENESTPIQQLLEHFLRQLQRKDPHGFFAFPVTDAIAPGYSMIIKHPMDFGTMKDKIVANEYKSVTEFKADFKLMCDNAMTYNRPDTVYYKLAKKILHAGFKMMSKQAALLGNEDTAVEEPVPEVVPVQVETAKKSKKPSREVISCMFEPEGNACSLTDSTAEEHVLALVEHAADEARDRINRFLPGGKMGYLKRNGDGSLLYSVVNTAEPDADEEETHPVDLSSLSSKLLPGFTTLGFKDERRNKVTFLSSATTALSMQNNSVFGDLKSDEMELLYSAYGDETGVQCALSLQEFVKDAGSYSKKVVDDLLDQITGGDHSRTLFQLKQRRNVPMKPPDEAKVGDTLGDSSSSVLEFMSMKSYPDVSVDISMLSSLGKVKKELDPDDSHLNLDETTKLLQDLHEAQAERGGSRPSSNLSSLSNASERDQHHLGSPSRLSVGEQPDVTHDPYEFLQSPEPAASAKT

Row | Compound | DC50 (Table 5B) | further results
1 | COc1cc(-c2cn(C)c(=O)c3cnccc23)cc(OC)c1CN(C)CCn1cc(COC2CN(c3ccc4c(c3)C(=O)N(C3CCC(=O)NC3=O)C4=O)C2)nn1 (centres unmarked) [Compound D277] | < 10 nM | 
2 | COc1cc(-c2cn(C)c(=O)c3cnccc23)cc(OC)c1CN1CC(CCNC(=O)CCOCCOc2cccc3c2C(=O)N(C2CCC(=O)NC2=O)C3=O)C1 (centres unmarked) [Compound D83] |  | DC50 (Table 5A): 100 to 1000 nM
3 | COc1cc(-c2cn(C)c(=O)c3cnccc23)cc(OC)c1CN(C)C(=O)CCCCN1CCC2C1CN2c1ccc2c(c1)C(=O)N(C1CCC(=O)NC1=O)C2=O (centres unmarked) [Compound D205] | < 10 nM | 
4 | COc1cc(-c2cn(C)c(=O)c3cnccc23)cc(OC)c1CN1CCC2C(C1)CN2C(=O)CCC#Cc1ccc2c(c1)C(=O)N(C1CCC(=O)NC1=O)C2=O (centres unmarked) [Compound D243] | < 10 nM | 
5 | COc1cc(-c2cn(C)c(=O)c3cnccc23)cc(OC)c1CN1CCC2(CC1)CN(CCCC#Cc1ccc3c(c1)C(=O)N(C1CCC(=O)NC1=O)C3=O)C2 (centres unmarked) [Compound D196] | 10 to 100 nM | 
6 | COc1cc(-c2cc(C)c(=O)n(C)c2)cc(OC)c1CN1CC(C#Cc2ccc3c(c2)CN(C2CCC(=O)NC2=O)C3=O)C1 (centres unmarked) [Compound D440] |  | DC50 (Table 5C): < 10 nM
7 | COc1cc(-c2cn(C)c(=O)c3cnccc23)cc(OC)c1CN1CCC(n2cc(CN3CC(Oc4ccc5c(c4)C(=O)N(C4CCC(=O)NC4=O)C5=O)C3)nn2)CC1 (centres unmarked) [Compound D280] | < 10 nM | 
8 | C=CCn1cc(-c2cc(OC)c(CN3CC(CN4CCC5(CC4)CN(c4ccc6c(c4)C(=O)N(C4CCC(=O)NC4=O)C6=O)C5)C3)c(OC)c2)cc(C)c1=O (centres unmarked) [Compound D348] | < 10 nM | 
9 | COc1cc(-c2cn(C)c(=O)c3cnccc23)cc(OC)c1CN(C)CCCn1cc(COC2CCN(c3ccc4c(c3)C(=O)N(C3CCC(=O)NC3=O)C4=O)CC2)nn1 (centres unmarked) [Compound D287] | < 10 nM | 
10 | COc1cc(-c2cn(C)c(=O)c3cnccc23)cc(OC)c1CN(C)C(=O)CCCCN1CC2(CCN(c3ccc4c(c3)C(=O)N(C3CCC(=O)NC3=O)C4=O)C2)C1 (centres unmarked) [Compound D187] | < 10 nM | 
11 | COc1cc(-c2ccc(=O)n(C)c2)cc(OC)c1CN1CCN(c2ccc3c(c2)C(=O)N(C2CCC(=O)NC2=O)C3=O)CC1 (centres unmarked) [Compound D344] | < 10 nM | 
12 | COc1cc(-c2cn(C)c(=O)c3cnccc23)cc(OC)c1CN1CCC(n2cc([C@@H](C)Oc3ccc4c(c3)C(=O)N(C3CCC(=O)NC3=O)C4=O)nn2)CC1 (some centres unmarked) [Compound D319] | < 10 nM | 
13 | COc1cc(-c2cn(C)c(=O)c3cnccc23)cc(OC)c1CN1CC(CC(=O)NC2CC3(C2)CC(Oc2ccc4c(c2)C(=O)N(C2CCC(=O)NC2=O)C4=O)C3)C1 (centres unmarked) [Compound D182] | 10 to 100 nM | 
14 | COc1cc(-c2cn(C)c(=O)c3cnccc23)cc(OC)c1CN1CCC2(C1)CN(C(=O)CCC#Cc1ccc3c(c1)C(=O)N(C1CCC(=O)NC1=O)C3=O)C2 (centres unmarked) [Compound D269] | < 10 nM | 
15 | COc1cc(-c2cn(C)c(=O)n3ccnc23)cc(OC)c1CN1CC(CN2CCC3(CC2)CN(c2ccc4c(c2)C(=O)N(C2CCC(=O)NC2=O)C4)C3)C1 (centres unmarked) [Compound D365] | 10 to 100 nM | 
16 | COc1cc(-c2cnc(=O)n(C)c2)cc(OC)c1CN1CCN(CCC2CCN(c3ccc4c(c3)C(=O)N(C3CCC(=O)NC3=O)C4=O)CC2)CC1 (centres unmarked) [Compound D342] | > 1000 nM | 
17 | COc1cc(-c2cn(C)c(=O)c3cnccc23)cc(OC)c1CN(C)C1CCN(CCOc2ccc3c(c2)C(=O)N(C2CCC(=O)NC2=O)C3=O)CC1 (centres unmarked) [Compound D51, 5-[2-[4-([[2,6-dimethoxy-4-(2-methyl-1-oxo-2,7-naphthyridin-4-yl)phenyl]methyl] (methyl)amino)piperidin-1-yl]ethoxy]-2-(2,6-dioxopiperidin-3-yl)isoindole-1,3-dione; formic acid] |  | DC50 (Table 5A): < 10 nM
18 | COc1cc(-c2cn(C)c(=O)c3cnccc23)cc(OC)c1CN1CC2(CCN(C(=O)CCC#Cc3ccc4c(c3)C(=O)N(C3CCC(=O)NC3=O)C4=O)CC2)C1 (centres unmarked) [Compound D219] | < 10 nM | 
19 | COc1cc(-c2cc(C#N)c(=O)n(C)c2)cc(OC)c1CN1CC(CN2CCC3(CC2)CN(c2ccc4c(c2)C(=O)N(C2CCC(=O)NC2=O)C4=O)C3)C1 (centres unmarked) [Compound D352] | > 1000 nM | 
20 | [2H]C([2H])([2H])n1cc(-c2cc(OC)c(CN3[C@H](C)CN(c4ccc5c(c4)C(=O)N(C4CCC(=O)NC4=O)C5)C[C@H]3C)c(OC)c2)c2nn(C)cc2c1=O (some centres unmarked) [Compound D424] |  | DC50 (Table 5C): < 10 nM
21 | CNC(=O)N(C)Cc1cc(-c2cc(OC)c(CN3CC(CN4CCC5(CC4)CN(c4ccc6c(c4)C(=O)N(C4CCC(=O)NC4=O)C6=O)C5)C3)c(OC)c2)cn(C)c1=O (centres unmarked) [Compound D355] | > 1000 nM | 
22 | COc1cc(-c2cn(C)c(=O)c3cnccc23)cc(OC)c1CN1CCC(c2ncc(COc3ccc4c(c3)C(=O)N(C3CCC(=O)NC3=O)C4=O)o2)CC1 (centres unmarked) [Compound D326] | < 10 nM | 

Row | Compound | DC50 (Table 5B) | further results
23 | COc1cc(-c2cn(C)c(=O)c3cnccc23)cc(OC)c1CN1CC(CC(=O)NC2CCC23CN(c2ccc4c(c2)C(=O)N(C2CCC(=O)NC2=O)C4=O)C3)C1 (centres unmarked) [Compound D209] | 100 to 1000 nM | 
24 | COc1cc(-c2cn(C)c(=O)c3cnccc23)cc(OC)c1CN(C)C(=O)CCCCN1CCC2(CC1)CN(c1ccc3c(c1)C(=O)N(C1CCC(=O)NC1=O)C3=O)C2 (centres unmarked) [Compound D186] | < 10 nM | 
25 | COc1cc(-c2cn(C)c(=O)c3cnccc23)cc(OC)c1CN1CC(Oc2ccc3c(c2)C(=O)N(C2CCC(=O)NC2=O)C3=O)C1C (centres unmarked) [Compound D376] |  | DC50 (Table 5C): < 10 nM
26 | COc1cc(-c2cn(C)c(=O)c3cnccc23)cc(OC)c1CN1CC(CC(=O)N2CCC3(CC(Oc4ccc5c(c4)C(=O)N([C@H]4CCC(=O)NC4=O)C5=O)C3)C2)C1 (some centres unmarked) [Compound D267] | 10 to 100 nM | 
27 | COc1cc(-c2cn(C)c(=O)c3cnccc23)cc(OC)c1CN1CCC2(CC1)CN(C(=O)C#Cc1ccc3c(c1)C(=O)N(C1CCC(=O)NC1=O)C3=O)C2 (centres unmarked) [Compound D197] | < 10 nM | 
28 | COc1cc(-c2cc(C)c(=O)n(C)c2)cc(OC)c1CN1CCC(CCN2CCN(C3CCC(=O)NC3=O)C(=O)C2)CC1 (centres unmarked) [Compound D334] | > 1000 nM | 
29 | COc1cc(-c2cn(C)c(=O)c3cnccc23)cc(OC)c1CN(C)CCCCN1CCC2(CC(Oc3ccc4c(c3)C(=O)N(C3CCC(=O)NC3=O)C4=O)C2)C1 (centres unmarked) [Compound D253] | < 10 nM | 
30 | COc1cc(-c2cn(C)c(=O)c3cnccc23)cc(OC)c1CN1CCC(n2cc(COC3CCN(c4ccc5c(c4)C(=O)N(C4CCC(=O)NC4=O)C5=O)CC3)nn2)CC1 (centres unmarked) [Compound D281] | 10 to 100 nM | 
31 | COc1cc(-c2cn(C)c(=O)c3cnccc23)cc(OC)c1CN1CC2(CCN(CCCC#Cc3ccc4c(c3)C(=O)N(C3CCC(=O)NC3=O)C4=O)C2)C1 (centres unmarked) [Compound D211] | < 10 nM | 
32 | COc1cc(-c2cn(C)c(=O)c3cnn(C)c23)cc(OC)c1CN1CC(CN2CCC3(CC2)CN(c2ccc4c(c2)CN(C2CCC(=O)NC2=O)C4=O)C3)C1 (centres unmarked) [Compound D369] | < 10 nM | 
33 | COc1cc(-c2cc(C)c(=O)n(C)c2)cc(OC)c1CN1CC(C#Cc2ccc3c(c2)C(=O)N(C2CCC(=O)NC2=O)C3)C1C (centres unmarked) [Compound D453] |  | IC50 (Table 5C): < 10 nM
34 | COc1cc(-c2cc(C)c(=O)n(C)c2)cc(OC)c1CN1CC(C#Cc2ccc3c(c2)C(=O)N(C2CCC(=O)NC2=O)C3)C1 (centres unmarked) [Compound D438] |  | DC50 (Table 5C): < 10 nM
35 | COc1cc(-c2cn(C)c(=O)c3cnccc23)cc(OC)c1CN1CC(CC(=O)N2CCC3C2CN3c2ccc3c(c2)C(=O)N(C2CCC(=O)NC2=O)C3=O)C1 (centres unmarked) [Compound D210] | 10 to 100 nM | 
36 | COc1cc(-c2cn(C)c(=O)c3cnccc23)cc(OC)c1CN(C)C(=O)CCCCN1CCCC2(CC(Oc3ccc4c(c3)C(=O)N([C@H]3CCC(=O)NC3=O)C4=O)C2)C1 (some centres unmarked) [Compound D262] | < 10 nM | 
37 | COc1cc(-c2cn(C)c(=O)c(C)c2C)cc(OC)c1CN1CCC2(C1)CN(c1ccc3c(c1)C(=O)N(C1CCC(=O)NC1=O)C3=O)C2 (centres unmarked) [Compound D430] |  | DC50 (Table 5C): < 10 nM
38 | COc1cc(-c2cn(C)c(=O)c3cnccc23)cc(OC)c1CN1CCC(CCN2CCN(c3ccc4c(c3)C(=O)N(C3CCC(=O)NC3=O)C4=O)CC2)CC1 (centres unmarked) [Compound D42, 5-(4-(2-(1-(2,6-dimethoxy-4-(2-methyl-1-oxo-1,2-dihydro-2,7-naphthyridin-4-yl)benzyl)piperidin-4-yl)ethyl)piperazin-1-yl)-2-(2,6-dioxopiperidin-3-yl)isoindoline-1,3-dione formic acid] |  | DC50 (Table 5A): < 10 nM
39 | COc1cc(-c2cn(C)c(=O)c3cnccc23)cc(OC)c1CN1CC(CC(=O)N2CCCC3(CC(Oc4ccc5c(c4)C(=O)N([C@H]4CCC(=O)NC4=O)C5=O)C3)C2)C1 (some centres unmarked) [Compound D265] | 100 to 1000 nM | 
40 | COc1cc(-c2cn(C)c(=O)c3cnccc23)cc(OC)c1CN1CC2(CCN(C(=O)C#Cc3ccc4c(c3)C(=O)N(C3CCC(=O)NC3=O)C4=O)C2)C1 (centres unmarked) [Compound D239] | < 10 nM | 
41 | COc1cc(-c2cn(C)c(=O)c3cnccc23)cc(OC)c1CN1CC2(CCN(C(=O)CC#Cc3ccc4c(c3)C(=O)N(C3CCC(=O)NC3=O)C4=O)C2)C1 (centres unmarked) [Compound D311] | 10 to 100 nM | 
42 | COc1cc(-c2cn(C)c(=O)c3cnccc23)cc(OC)c1CN(C)C(=O)CCCCN1CCC2(CC(Oc3ccc4c(c3)C(=O)N(C3CCC(=O)NC3=O)C4=O)C2)C1 (centres unmarked) [Compound D263] | < 10 nM | 
43 | COc1cc(-c2cn(C)c(=O)c3cnccc23)cc(OC)c1CN1CC2(CCN(C(=O)CCOCCOc3cccc4c3C(=O)N(C3CCC(=O)NC3=O)C4=O)C2)C1 (centres unmarked) [Compound D90] |  | IC50 (Table 5A): 10 to 100 nM
44 | COc1cc(-c2cn(C)c(=O)c3cncn23)cc(OC)c1CN1CC(CN2CCC3(CC2)CN(c2ccc4c(c2)C(=O)N(C2CCC(=O)NC2=O)C4)C3)C1 (centres unmarked) [Compound D361] | < 10 nM | 
